Measurements from patent US20140072657A1, “NOVEL PHARMACEUTICAL FORMULATION” (priority 2011, published 2014).

What was measured:
[1] = test system: Gingivitis, edema, mucosal inflammation; assay: Clinical observation of oral inflammation, edema and regeneration (gingivitis, dentition difficilis, healing cap, inflamed extraction socket); format: in vivo, human
Description: (§1) Initial motivation and cleaning instruction, supragingival biofilm reduction by trimestrially repeated brushing in CHX solution 0.07 wt % for two weeks by the patient and tooth and pocket cleaning by ultrasonic scaling as well as covering exposed root dentine by adhesive fillings to hide protein coaggregational binding sites for anaerobic microbial species (A.a., P.g., T.d.) was administered. […]

[2] = test system: Periodontitis; assay: Periodontitis cases: sites with CPITN code 3+4 / code 4 pockets before and after the composition; format: in vivo, human
From the text: As indicator of periodontal status pocket depth is used according to Treatment Need codes 3 and 4 in Community Periodontal Index—Treatment Needs (CPITN). This code is applied to every treated tooth or implant.
Periodontal pockets: shallow (Code 3: 4-5 mrn) and deep (Code 4: 6 mm or more).
as §1

[3] = Case 11, 4000 I.E. systemically 2 months
[4] = cases 10, 11, systemic application over 2 months

C=C1CC[C@H](O)C/C1=C/C=C1\CCC[C@]2(C)[C@@H]([C@H](C)CCCC(C)C)CC[C@@H]12 [vit D3, vitamin D3]
edema ([1]; Case 10, 4000 I.E. systemically 2 months): no edema | pockets ([1]; Case 10, Gingivitis, Mc Calls edema, 4000 I.E. systemically 2 months): Shallow pockets, | Code 4: severe ([2]; Case 11, 18 sites/3, 4000 I.E. systemically 2 months, before 22): 22 | edema [2, 3]: no edema | pocket regeneration code 3 [2, 3]: +33% | sensitivity [2, 3]: no sensitivity, | CPITN Code 3 + 4 Nr. ([2]; Case 11, Periodontitis, Periimplantitis, 18 sites/3, 4000 I.E. systemically 2 months, before 61): 38 | edema, inflammation and attachment loss [2, 4]: stop of edema, inflammation and attachment loss | regeneration in code 3 CPITN pockets [2, 4]: some regeneration
